Test results taken from patent publication US5849759A, “Naphthyl-substituted benzimidazole derivatives as anti-coagulants” (Berlex Laboratories, Inc., priority 1995, dated 1998).
Where a SMILES comes first, the peptide text is derived from it. [ ]: non-standard residue; d: D form. The star is where a group is joined. pNA = O=[N+]([O-])c1ccc(N*)cc1

How the values were obtained:
[1] = target: T1, Human tissue plasminogen activator (tPA) (Two chains, Sigma) (Homo sapiens, UniProt P00750); experiment: In vitro chromogenic assay for tissue plasminogen activator; format: biochemical; conditions: substrate concentration stated equal to Km under present assay conditions; pH 7.5, ambient temperature; read-out: Km (S2288)
T1 construct: purchased Sigma
T1 sequence (P00750 311-562 limits assumed): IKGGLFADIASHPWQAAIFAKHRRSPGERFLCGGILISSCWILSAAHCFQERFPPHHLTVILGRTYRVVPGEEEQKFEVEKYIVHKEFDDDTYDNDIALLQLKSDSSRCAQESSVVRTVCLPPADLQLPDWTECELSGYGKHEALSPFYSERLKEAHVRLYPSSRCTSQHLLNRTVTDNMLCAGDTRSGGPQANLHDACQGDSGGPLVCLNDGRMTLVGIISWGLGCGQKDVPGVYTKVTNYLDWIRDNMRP
T1 sequence (P00750 36-310 partner limits assumed): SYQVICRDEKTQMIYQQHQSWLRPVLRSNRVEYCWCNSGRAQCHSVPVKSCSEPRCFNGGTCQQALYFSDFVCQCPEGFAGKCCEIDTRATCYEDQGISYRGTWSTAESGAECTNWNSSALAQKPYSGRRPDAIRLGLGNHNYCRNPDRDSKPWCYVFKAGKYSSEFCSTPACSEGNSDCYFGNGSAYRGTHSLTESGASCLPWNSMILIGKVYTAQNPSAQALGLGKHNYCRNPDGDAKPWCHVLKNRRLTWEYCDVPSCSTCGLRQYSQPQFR
Procedure: (§1) The activities were determined as an initial rate of cleavage of the peptide p-nitroanilide by the enzyme. The cleavage product, p-nitroaniline, absorbs at 405 nm with a molar extinction coefficient of 9920M^-1 cm^-1.
(§2) 50 mM TrisHCl, 150 mM NaCl, 2.5 mM CaCl2, and 0.1% polyethylene glycol 6000, pH 7.5.
3. Human tissue plasminogen activator (tPA) (Two chains, Sigma) stock solution: 1 mg/mL, stored at -80° C. (working solution (2X): 1361 ng/mL in assay buffer, prepare prior to use).
3. S2288 (tPA assay) stock solution: 10 mM in dH2 O, stored at 4° C. (working solution (4X): 1484 μM in assay buffer). (All substrate working solutions were prepared on assay day […].)
Assays were performed in 96-well microtiter plates in a total volume of 200 μl. […] Concentrations of the standard inhibitor compound in the assay were from 5 μM to 0.021 μM in 1 to 3 dilution. Concentration of the test compounds in the assay typically were from 10 μM to 0.041 μM in 1 to 3 dilution. […]
(§3) The enzyme kinetics were measured at 405 nm, at 10 seconds interval, for five minutes in a THERMOmax plate reader at ambient temperature.
(§4) Enzyme rates were calculated as mOD/min based on the first two minutes readings. The IC50 values were determined by fitting the data to the log-logit equation (linear) or the Morrison equation (non-linear) with an EXCEL spread-sheet. […]

[2] = target: T2, Human thrombin (factor IIa) (Homo sapiens, UniProt P00734); experiment: In vitro chromogenic assay for thrombin; format: biochemical; conditions: substrate concentration stated equal to Km under present assay conditions; pH 7.5, ambient temperature; read-out: Km (S2302)
T2 construct: Human thrombin stock solution; purchased Enzyme Research Lab
Procedure: as §1, §2
2. Human thrombin stock solution: Stored at -80° C. (working solution (2X): 1200 ng/mL or 40 nM in assay buffer, prepare prior to use).
2. S2302 (Thrombin assay) stock solution: 10 mM in dH2 O, stored at 4° C. (working solution (4X): 1200 μM in assay buffer).
Assays were performed in 96-well microtiter plates in a total volume of 200 μl. […] Concentrations of the standard inhibitor compound in the assay were from 5 μM to 0.021 μM in 1 to 3 dilution. Concentration of the test compounds in the assay typically were from 10 μM to 0.041 μM in 1 to 3 dilution. For potent test compounds, the concentrations used in the factor Xa assay were further diluted 100 fold (100 nM to 0.41 nM) or 1000 fold (10 nM to 0.041 nM). […]
as §3, §4

Km [1]	Km [2]	SMILES
371 µM	–	CC[C@@H](C)[C@@H](N)C(=O)N1CCC[C@H]1C(=O)N[C@@H](CCCN=C(N)N)C(=O)Nc1ccc([N+](=O)[O-])cc1 [S2288] (H-[dI]-Pro-Arg-pNA)
–	300 µM	N=C(N)NCCC[C@H](NC(=O)[C@H](Cc1ccccc1)NC(=O)[C@H]1CCCN1)C(=O)Nc1ccc([N+](=O)[O-])cc1 [S2302] (H-[dP]-Phe-Arg-pNA)
